Data reported in patent publication US8227513B2, “Food composition for binding acetaldehyde in mouth and in digestive track, and method for the preparation of the composition” (Biohit Oyj, priority 2005, dated 2012).

Assay: capability of cysteine to bind acetaldehyde from beers and yoghurts (gas chromatograph)
Settings: for acetaldehyde concentration after the treatment: incubated 5 min at room temperature
Procedure: In the test, the capability of cysteine to bind acetaldehyde from light alcohol drinks and milk products, such as yoghurt, was examined. The amounts of acetaldehyde in four Finnish yoghurts and three beers were measured by means of a standardized method (Homann et al. 1997. High acetaldehyde levels in saliva after ethanol consumption: Methodological aspects and pathogenic implications. Carcinogenesis 18:1739-1743). The average acetaldehyde concentration (±SEM) in the beers was 146±30 μM. L-cysteine was added to the beers so that the final cysteine concentration of the product was 0 (the control), 0.1, 3 and 10 mM (i.e., 0 mg/l, 12.1 mg/l, 363 mg/l and 1210 mg/l); thereafter, the beers were incubated for 5 min at room temperature. Thereafter, the acetaldehyde contents were measured by means of a gas chromatograph. The acetaldehyde concentrations after the treatment were 146±30 μM, 133±32 μM, 26±9 μM and 10±3 μM, correspondingly. In the yoghurt, the acetaldehyde concentrations were 419±53 μM, on an average. L-cysteine was added so that the cysteine concentrations in the final product were 0 (the control), 0.1, 3 and 10 mM (i.e., 0 mg/l, 12.1 mg/l, 363 mg/l, and 1210 mg/l); thereafter, the yoghurts were incubated for 5 min at room temperature. The acetaldehyde concentrations after the treatment were 419±53 μM, 240±42 μM, 55±15 μM, and 15±2 μM.

## N[C@@H](CS)C(=O)O [L-cysteine]
Beers (control 146±30 μM), final cysteine concentration 0.1 mM (12.1 mg/l), mean ±SEM
  acetaldehyde concentration after the treatment: 133 ± 32 µM
Beers (control 146±30 μM), final cysteine concentration 3 mM (363 mg/l), mean ±SEM
  acetaldehyde concentration after the treatment: 26 ± 9 µM
Beers (control 146±30 μM), final cysteine concentration 10 mM (1210 mg/l), mean ±SEM
  acetaldehyde concentration after the treatment: 10 ± 3 µM
The products (beers and yoghurts), 3 mM of cysteine (363 mg/l)
  acetaldehyde in the products eliminated: over 80%
Yoghurts (control 419±53 μM), cysteine concentration 0.1 mM (12.1 mg/l)
  acetaldehyde concentration after the treatment: 240 ± 42 µM
Yoghurts (control 419±53 μM), cysteine concentration 3 mM (363 mg/l)
  acetaldehyde concentration after the treatment: 55 ± 15 µM
Yoghurts (control 419±53 μM), cysteine concentration 10 mM (1210 mg/l)
  acetaldehyde concentration after the treatment: 15 ± 2 µM
